Laboratory results: paper PMC5829162, “Rational Design, Synthesis and Biological Evaluation of Pyrimidine-4,6-diamine derivatives as Type-II inhibitors of FLT3 Selective Against c-KIT” (Scientific Reports, 2018)
Where two headings read alike, the source gives them in different places.

Assays:
FLT3 kinase = target: T1, FLT3 kinase (Homo sapiens, UniProt P36888); assay: Biochemical enzyme inhibition assay (microfluidics, Caliper EZ Reader II), FLT3; settings: for IC50: in vitro kinase assay, 60 min pre-incubation, ATP 190 µM, three independent experiments; for LE: ligand efficiency for FLT3 inhibition
T1 construct: purchased Invitrogen
T1 sequence (P36888 27-993): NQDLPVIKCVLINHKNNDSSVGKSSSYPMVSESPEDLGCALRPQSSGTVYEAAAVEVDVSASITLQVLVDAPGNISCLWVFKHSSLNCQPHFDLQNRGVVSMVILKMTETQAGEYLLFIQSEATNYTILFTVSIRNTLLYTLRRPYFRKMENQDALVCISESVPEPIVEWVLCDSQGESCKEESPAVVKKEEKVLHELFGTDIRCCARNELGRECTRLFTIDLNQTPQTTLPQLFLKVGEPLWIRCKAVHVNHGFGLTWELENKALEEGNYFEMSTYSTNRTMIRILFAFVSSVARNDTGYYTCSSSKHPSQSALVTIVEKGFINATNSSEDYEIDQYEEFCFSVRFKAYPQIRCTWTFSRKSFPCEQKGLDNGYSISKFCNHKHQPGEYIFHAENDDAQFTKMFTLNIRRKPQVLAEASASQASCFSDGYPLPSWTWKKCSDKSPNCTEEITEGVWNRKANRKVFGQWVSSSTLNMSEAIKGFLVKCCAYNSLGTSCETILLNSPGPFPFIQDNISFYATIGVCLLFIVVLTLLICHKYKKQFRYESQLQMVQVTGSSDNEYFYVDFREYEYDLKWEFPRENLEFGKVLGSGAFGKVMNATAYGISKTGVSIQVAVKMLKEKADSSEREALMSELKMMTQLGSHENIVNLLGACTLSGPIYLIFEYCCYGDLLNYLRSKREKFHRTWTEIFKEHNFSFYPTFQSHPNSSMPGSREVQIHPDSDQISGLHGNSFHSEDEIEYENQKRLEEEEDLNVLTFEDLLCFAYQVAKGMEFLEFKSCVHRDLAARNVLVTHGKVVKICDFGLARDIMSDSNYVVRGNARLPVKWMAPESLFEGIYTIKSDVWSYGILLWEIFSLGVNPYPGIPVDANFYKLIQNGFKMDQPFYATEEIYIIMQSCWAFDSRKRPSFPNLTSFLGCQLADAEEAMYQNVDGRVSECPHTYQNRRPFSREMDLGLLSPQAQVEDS
Description: Kinase activity was measured in a microfluidics assay that monitors the separation of a phosphorylated product from substrate[31],[32]. […] After, 1 μL was transferred into a 384-well polypropylene assay plate (Greiner, Frickenhausen, Germany). The FLT3 enzyme (Invitrogen™, Grand Island, USA) was diluted in kinase buffer to a concentration of 2 nM and 5 µL of the enzyme mixture was transferred to the assay plate. The inhibitors/FLT3 enzyme were incubated for 60 minutes with minor shaking. […] For positive control, no inhibitor was added. For negative control, no enzyme was added. For running control, quizartinib was utilized. The plate was run until 10–20% conversion based on the positive control wells. The following separation conditions were utilized: upstream voltage −500V; downstream voltage, −1900V; chip pressure −0.8. Percent inhibition was measured for each well comparing starting peptide to phosphorylated product peaks relative to the baseline. Dose response curves, spanning the IC50 dose, were generated in GraphPad Prisim 6 and fit to an exponential one-phase decay line and IC50 values were obtained from the half-life value of the curve. IC50 values were generated in duplicate and error was calculated from the standard deviation between values.
S10. Biochemical Inhibition Assay:1,2 Kinase activity was measured in a microfluidics assay that monitors the separation of a phosphorylated product from substrate. The assay was run using a 12-sipper chip on a Caliper EZ Reader II (PerkinElmer®, Walthman, USA) with separation […]
Walthman, USA]). In 96-well polypropylene plates (Greiner, Frickenhausen, Germany) […]
After, 1 μL was transferred into a 384-well polypropylene assay plate (Greiner, Frickenhausen, Germany). The FLT3 enzyme (Invitrogen™, Grand Island, USA) was diluted in kinase buffer to a concentration of 2 nM and 5 µL of the enzyme mixture was transferred to the assay plate. The inhibitors/FLT3 enzyme were incubated for 60 minutes with minor shaking. A substrate mix was prepared containing ATP (Ambresco®, Solon, USA) and […]
USA) dissolved in kinase buffer, and 5 µL of the substrate mix was added to the assay plate.
For positive control, no inhibitor was added. For negative control, no enzyme was added. For running control, quizartinib was utilized. The plate was run until 10-20% conversion based on the positive control wells. The following separation conditions were utilized: upstream voltage -500V; downstream voltage, -1900V; chip pressure - 0.8. Percent inhibition was measured for each well comparing starting peptide to phosphorylated product peaks relative to the baseline. Dose response curves, spanning the IC50 dose, were generated in GraphPad Prisim 6 and fit to an exponential one-phase decay line and IC50 values were obtained from the half-life value of the curve. IC50 values were generated in duplicate and error was calculated from the standard deviation between values. […]

Compound	IC50 (FLT3 kinase; read-out: FLT3 IC50 (nM) ± SD)	LE (FLT3 kinase)	melting point	IC50 (FLT3 kinase; FLT3 IC50 (nM) ± SD)	fold less active than 13a on FLT3 (FLT3 kinase; enzymatic FLT3 IC50 compared with 13a)
CC(C)(C)c1cc(NC(=O)Cc2ccc(Nc3cc(Nc4cccc(C(F)(F)F)c4)ncn3)cc2)no1 [13m, 2-(4-(6-(3-(Trifluoromethyl)phenylamino)pyrimidin-4-ylamino)phenyl)-N-(5-tert-butylisoxazol-3-yl)acetamide]	1180 ± 527 nM	0.22	254 to 256 °C	–	–
CC(C)(C)c1cc(NC(=O)Cc2ccc(Nc3cc(NCCCN4CCCC4)ncn3)cc2)no1 [13n, 2-(4-(6-(3-(Pyrrolidin-1-yl)propylamino)pyrimidin-4-ylamino)phenyl)-N-(5-tert-butylisoxazol-3-yl)acetamide]	1030 ± 121 nM	0.23	154 to 156 °C	–	–
CC(C)(C)c1cc(NC(=O)Cc2ccc(Nc3cc(Oc4ccc(Br)cc4)ncn3)cc2)no1 [13o, 2-(4-(6-(4-Bromophenoxy)pyrimidin-4-ylamino)phenyl)-N-(5-tert-butylisoxazol-3-yl)acetamide]	–	0.19	188 to 190 °C	14800 ± 248 nM	–
CC(C)(C)c1cc(NC(=O)Cc2ccc(Nc3cc(N4CCOCC4)ncn3)cc2)no1 [13p, 2-(4-(6-Morpholinopyrimidin-4-ylamino)phenyl)-N-(5-tert-butylisoxazol-3-yl)acetamide]	395 ± 78 nM	0.28	218 to 220 °C	–	–
CN(C)c1cc(Oc2ccc(CC(=O)Nc3cc(C(C)(C)C)on3)cc2)ncn1 [13q, 2-(4-(6-(Dimethylamino)pyrimidin-4-yloxy)phenyl)-N-(5-tert-butylisoxazol-3-yl)acetamide]	8760 ± 127 nM	0.24	170 to 172 °C	–	–
CS(=O)(=O)c1ccc(Nc2cc(Nc3ccc(CC(=O)Nc4cccc(C(F)(F)F)c4)cc3)ncn2)cc1 [13s, 2-(4-(6-(4-(Methylsulfonyl)phenylamino)pyrimidin-4-ylamino)phenyl)-N-(3-(trifluoromethyl)phenyl)acetamide]	860 ± 30 nM	0.22	225 to 227 °C	–	–
O=C(Cc1ccc(Nc2cc(NCCCN3CCCC3)ncn2)cc1)Nc1ccc(OC(F)(F)F)cc1 [13t, 2-(4-(6-(3-(Pyrrolidin-1-yl)propylamino)pyrimidin-4-ylamino)phenyl)-N-(4-(trifluoromethoxy)phenyl)acetamide]	909 ± 95.9 nM	0.22	212 to 214 °C	–	–
CNc1cc(Oc2ccc(CC(=O)Nc3ccc(C(C)(C)C)cc3)cc2)ncn1 [13x, 2-(4-(6-(Methylamino)pyrimidin-4-yloxy)phenyl)-N-(4-tert-butylphenyl)acetamide]	5090 ± 75.5 nM	0.25	208 to 210 °C	–	–
CNc1cc(Nc2ccc(CC(=O)Nc3ccc(OC(F)(F)F)cc3)cc2)ncn1 [13z, 2-(4-(6-(Methylamino)pyrimidin-4-ylamino)phenyl)-N-(4-(trifluoromethoxy)phenyl) acetamide]	7370 ± 333 nM	0.23	220 to 222 °C	–	–
Cn1nc(C(C)(C)C)cc1NC(=O)Nc1ccc(Nc2cc(Nc3ccc(S(C)(=O)=O)cc3)ncn2)cc1 [24a, 1-(4-(6-(4-(Methylsulfonyl)phenylamino)pyrimidin-4-ylamino)phenyl)-3-(3-tert-butyl-1-methyl-1H-pyrazol-5-yl)urea]	41 ± 6.8 nM	0.27	238 to 240 °C	–	~ 3 fold
CNc1cc(Nc2ccc(NC(=O)Nc3cc(C(C)(C)C)nn3C)cc2)ncn1 [24b, 1-(4-(6-(Methylamino)pyrimidin-4-ylamino)phenyl)-3-(3-tert-butyl-1-methyl-1H-pyrazol-5-yl)urea]	38.2 ± 1.5 nM	0.37	242 to 244 °C	–	–
CC(C)(C)c1cc(NC(=O)Nc2ccc(Nc3cc(Nc4ccc(S(C)(=O)=O)cc4)ncn3)cc2)no1 [24c, 1-(4-(6-(4-(Methylsulfonyl)phenylamino)pyrimidin-4-ylamino)phenyl)-3-(5-tert-butylisoxazol-3-yl)urea]	29 ± 1.9 nM	0.28	245 to 247 °C	–	–
